# Test results as given in US5510459A, “Glucagon antagonists” (ZymoGenetics, Inc., priority 1992, dated 1996).
# Ends that are not written are not given here.
# Columns and labels:
# [1] = biological target: T1, glucagon receptor (rat liver membrane adenylate cyclase) (Rattus norvegicus, UniProt P30082); test: Adenylate cyclase activity assay with synthetic peptide glucagon analogs (Example 6); assay type: biochemical; conditions: synthetic peptides; in the presence of 20 nm glucagon
# T1 construct: A. Preparation of Rat Liver Membranes; from tissue; host or cells: rat liver (Sprague-Dawley) plasma membranes
# Method: The adenylate cyclase assay was carried out byfirst adding 5 μl of sample (e.g. yeast broth) containingpotential inhibitors at micromolar concentrations to eachwell of a 96-well microtiter plate. […] Fifty microliters of the A+Bsolution was added to each "no glucagon" control well.Glucagon was added from the "G" solution to the remainingA+B solution to a concentration of 1×10^-8 M (thisresults in a final assay concentration of 5×10^-9).Fifty microliters of the A+B+glucagon solution was addedto each well, excluding the "no glucagon" controls. Themembrane preparation was diluted to approximately 2 mg/mlprotein with water. The reaction was started by theaddition of 45 μl of diluted membrane to each well, inorder. The assays were incubated for 12 minutes at roomtemperature, and were stopped by the addition of 100 μl ofStop Mix to each well in the same order that the dilutedmembrane was added. The assay mixtures were clarified bycentrifugation, and the assays were stored at 4° C.
# Cyclic AMP concentrations were determined usingan Amersham Scintillation Proximity Assay Kit (Amersham,Arlington Heights, Ill.). Briefly, 10 μl from eachadenylate cyclase reaction was added to individual betaplate wells. Each sample was diluted with 65 μl of 50 mM Na Acetate. Cyclic AMP standards were prepared at 0.0,1.6 and 6.4×10^-9 M or may be prepared from the"non-standards" supplied with Amersham kit.Triplicate standards of 75 μl of each standard were addedto individual beta plate wells. Nonspecific binding (NSB)controls were prepared by adding 150 μl of 50 mM NaAcetate to triplicate beta plate wells. […] Seventy-fivemicroliters of diluted anti-rabbit SPA reagent was thenadded to each well, and the plates were sealed andincubated, with shaking, overnight at room temperature.The plates were counted for one minute per sample in abeta-plate counter. […] The percent response for thestandards and samples was determined using the formula: […]
# [2] = biological target: T2, glucagon receptor (liver plasma membranes) (Rattus norvegicus, UniProt P30082); test: Glucagon binding assay (125I-glucagon, liver plasma membranes); conditions: 30 minute incubation at 30° C., peptide 1.5-800 ng/ml
# T2 construct: 25 μl of freshly thawed plasmamembrane containing 10-20 μg of plasma membrane protein; from tissue
# Method: The ability of the synthetic peptides to inhibitglucagon binding was determined by measuring the bindingof radiolabeled glucagon in the presence of syntheticpeptide relative to the binding of radiolabeled glucagonin the absence of the synthetic peptides. The syntheticpeptides were dissolved in 10% acetic acid and lyophilizedbefore use. Glucagon was dissolved in 10% acetic acid andlyophilized in 25-μg portions for use as standards. ^125 I-glucagonwith a specific activity of 11.1 kBq/ng wasobtained from Novo Biolabs (Novo Alle, Bagsvaerd, Denmark)and stored at -18° C. Plasma membranes were prepared aspreviously described, except protein detemination wascarried out using a Bio-Rad Protein Assay (BioRad,Richmond, Calif.) according to the manufacturer's directionsusing bovine serum albumin as a standard. Milli-Q gradewater was used throughout .
# The lyophilized glucagon and synthetic peptideswere dissolved in 100 μl of 0.05M HCl, left for 3 minutes. The glucagon was diluted with buffer (2.5% humanserum albumin Grade 5, Sigma Chemical Co., St. Louis, Mo.! in 0.1M HEPES, 0.15M NaCl, pH 7.4) to 0.2-200ng/ml.The synthetic peptides were diluted with the same bufferto 1.5-800 ng/ml. […] The filters were counted in a gamma counter.The binding of des-His^1 -(Ala^2,11 -Glu^21)glucagonamide wasshown to be 84%±9.3.
# [3] = biological target: T1, glucagon receptor (rat liver membrane adenylate cyclase); test: Glucagon antagonist screening assay: adenylate cyclase reaction and cAMP assay with yeast culture broths; assay type: biochemical; conditions: no exogenous glucagon
# Description: Young female Sprague-Dawley rats were used forthe preparation of liver membranes using the methodessentially described by Neville (ibid.) and modified byPohl et al. (ibid). Ten to 15 rats yielding 60-100 grams of liver were processed per batch. After the rats wereeuthanized by cervical dislocation, their livers weresurgically removed and transferred, as quickly aspossible, to an iced beaker. Scissors were used to mincethe tissue into pieces approximately 3-6 mm in size. Anyconnective tissue that was present was removed.
# The minced tissue was suspended in ice cold 1 mMsodium bicarbonate at a concentration of approximately300 g/l. This suspension was processed in batches in atissue homogenizer with eight strokes of the loose pestle.The homogenate was mixed with additional ice cold 1 mMsodium bicarbonate to yield a final concentration of about40-80 g/l. […]
# After centrifugation, as much of the supernatantas possible was carefully decanted and discarded, and thepellets were gently resuspended in the remainingsupernatant with three strokes of the loose pestle in aclean tissue homogenizer. […] After thorough mixing, thesucrose concentration was measured with a refractometerand adjusted to between 43.9% and 44.1% sucrose(corresponding to a refractive index between 1.4076 and1.4080) with either 69% sucrose or water. […]
# T1 sequence (P30082 27-485): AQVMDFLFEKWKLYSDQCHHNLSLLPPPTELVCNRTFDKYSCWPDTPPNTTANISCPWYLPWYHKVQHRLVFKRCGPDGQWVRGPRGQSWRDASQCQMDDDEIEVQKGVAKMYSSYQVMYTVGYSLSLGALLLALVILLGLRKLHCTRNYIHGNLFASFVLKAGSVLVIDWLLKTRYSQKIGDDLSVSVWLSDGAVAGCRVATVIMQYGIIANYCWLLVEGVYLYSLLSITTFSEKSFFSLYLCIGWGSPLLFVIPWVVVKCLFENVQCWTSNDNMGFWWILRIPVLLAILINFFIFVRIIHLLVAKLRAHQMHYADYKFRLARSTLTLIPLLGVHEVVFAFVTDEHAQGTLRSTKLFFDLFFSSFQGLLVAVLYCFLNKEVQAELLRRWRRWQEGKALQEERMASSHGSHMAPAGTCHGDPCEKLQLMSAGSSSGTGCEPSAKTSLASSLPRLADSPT
# T2 sequence (P30082 27-485): as above
Compound,inhibition coefficient (I/A50): ratio of inhibitor to agonist concentration wherein the response is reduced to one-half [1],further results
"SQSTFTSDYSKYLDSRRAQDFVQWLMNT [G56, des-His^1 - Ser^4 !glucagon]",25,
"AQGTFTSDYAKYLDSRRAQEFVQWLMNT-NH2 [des-His^1 -(Ala^2,11 -Glu^21)glucagon amide]",,binding (inhibition of radiolabeled glucagon binding) [2]: 84%±9.3
"CSCC[C@H](NC(=O)[C@H](CC(C)C)NC(=O)[C@H](Cc1c[nH]c2ccccc12)NC(=O)[C@H](CCC(N)=O)NC(=O)[C@@H](NC(=O)[C@H](Cc1ccccc1)NC(=O)[C@H](CC(=O)O)NC(=O)[C@H](CCC(N)=O)NC(=O)[C@H](C)NC(=O)[C@H](CCCNC(=N)N)NC(=O)[C@H](CCCNC(=N)N)NC(=O)[C@H](CO)NC(=O)[C@H](CC(=O)O)NC(=O)[C@H](CC(C)C)NC(=O)[C@H](Cc1ccc(O)cc1)NC(=O)[C@H](CCCCN)NC(=O)[C@H](CO)NC(=O)[C@H](Cc1ccc(O)cc1)NC(=O)[C@H](CC(=O)O)NC(=O)[C@H](CO)NC(=O)[C@@H](NC(=O)[C@H](Cc1ccccc1)NC(=O)[C@@H](NC(=O)CNC(=O)[C@H](CCC(N)=O)NC(=O)[C@@H](N)CO)[C@@H](C)O)[C@@H](C)O)C(C)C)C(=O)N[C@@H](CC(N)=O)C(=O)N[C@@H](CO)C(=O)O [F73, des-His^1 - Ser^29 !glucagon]",30,
glucagon [ZB210],,stimulation of adenylate cyclase activity by culture broth in the absence of exogenous glucagon [3]: stimulation of adenylate cyclase
"DAQGTFISDYSKYLDSRRAQDFVQWLMNT [BB65, Asp^1 -Ala^2 -Ile^7 !glucagon]",25,
